From ChEMBL document CHEMBL1148887, “Design and synthesis of benzoazepinone-derived cyclic malonamides and aminoamides as potent gamma-secretase inhibitors” (Bioorg Med Chem Lett, 2007) come the findings set out here.

Data set [1] concerns the target Gamma-secretase. The experiment in a line: Inhibition of gamma secretase in APP-transfected CHO cells. The format is cell-based, Homo sapiens.
The target of data set [2] is Gamma-secretase. The data set can be described thus: Displacement of [3H]succinamide from gamma secretase in THP1 cell membranes. Details: species or system Homo sapiens. As to conditions: thp-1.
The nature of data set [3]: Fraction unbound ligand in Beagle dog at 0.5 mg/kg, po. Details: dose 0.5 mg/kg, route oral. As to conditions: in vivo. The class given is ADME, organism-based, Canis lupus familiaris.
A short description of data set [4]: Clearance in Beagle dog at 0.5 mg/kg, po. The format is ADME, organism-based, Canis lupus familiaris. More on the design: dose 0.5 mg/kg, route oral. As to conditions: in vivo.
In the next data set the test system is Canis familiaris. The data set can be described thus: Volume of distribution at steady state in Beagle dog at 0.5 mg/kg, po. The class given is ADME, organism-based, Canis lupus familiaris. More on the design: dose 0.5 mg/kg, route oral. The settings on record: in vivo.
A short description of data set [5]: Half life in Beagle dog at 0.5 mg/kg, po. The format is ADME, organism-based, Canis lupus familiaris. More on the design: dose 0.5 mg/kg, route oral. As to conditions: in vivo.
The nature of data set [6]: Cmax in Beagle dog at 0.5 mg/kg, po. The class given is ADME, organism-based, Canis lupus familiaris. As to conditions: in vivo. Details: dose 0.5 mg/kg, route oral.
The nature of data set [7]: Oral bioavailability in Beagle dog at 0.5 mg/kg, po. The format is ADME, organism-based, Canis lupus familiaris. The settings on record: in vivo.
Data set [8] addresses Gamma-secretase. The experiment in a line: Inhibition of gamma secretase-mediated beta amyloid production in NIH3T3 cells. The format is cell-based, Homo sapiens.

Each structure is given as a SMILES string.

On to `CN1C(=O)[C@@H](NC(=O)C2(C(=O)NCc3cc(F)cc(F)c3)CCC2)N=C(c2ccccc2)c2ccccc21`, for which half-maximal inhibition against Gamma-secretase [1] (IC50) required 0.115 µM. The same compound showed an inhibitory constant (Ki) on Gamma-secretase [2] of 0.0135 µM.

Consider `CC(C)CCNC(=O)C1(C(=O)N[C@H]2N=C(c3ccc(C(F)(F)F)cc3)c3ccccc3N(C)C2=O)CCC1`, for which half-maximal inhibition against Gamma-secretase [1] (IC50) was put at 0.014 µM. At Gamma-secretase [2], this compound showed an inhibition constant Ki of 0.0049 µM. In data set [3], this compound registered a fraction unbound of 0.005. Besides, in [4], the CL/F was 3.33 mL/min/kg. This compound gave a Vdss with Canis familiaris of 1.9 L/kg. Moreover, the half-life in [5] was 13.2 h. The compound also showed a Cmax in data set [6] of 567 nM. The compound further registered a bioavailability in data set [7] of 61%.

On to `CCCCNC(=O)C1(C(=O)N[C@H]2N=C(c3ccccc3)c3ccccc3N(C)C2=O)CCC1`, for which, at Gamma-secretase [1], the IC50 amounted to 0.02 µM. On Gamma-secretase [2], this compound displayed an inhibition constant (Ki) of 0.011 µM.

For the compound `CC(C)CCNC(=O)C1(C(=O)N[C@@H]2C(=O)N(C)c3ccccc3-c3ccccc32)CCC1`, the IC50 on Gamma-secretase [1] came out at 0.015 µM. Further, the Ki on Gamma-secretase [2] is 0.004 µM. The fraction unbound in data set [3] is 0.005. Also, the apparent clearance (CL/F) in [4] was 3.33 mL/min/kg. This compound also yielded a Vdss in the data set on Canis familiaris of 0.9 L/kg. Besides, the half-life in [5] is 5.3 h. In data set [6], this compound showed a Cmax of 172 nM. For the same compound, the bioavailability in data set [7] was determined as 23%.

In the case of `CC(C)CNC(=O)C1(C(=O)N[C@@H]2C(=O)N(C)c3ccccc3-c3ccccc32)CCC1`, on Gamma-secretase [1], the IC50 is 0.0058 µM. Also, at Gamma-secretase [2], the Ki was determined as 0.0014 µM. In data set [3], this compound displayed a fraction unbound of 0.001. Besides, in data set [4], the CL/F is 8.33 mL/min/kg. Besides, the Vdss with Canis familiaris came out at 2.1 L/kg. The half-life in data set [5] is 4.6 h. Moreover, the Cmax in [6] came out at 184 nM. The compound also had a bioavailability in data set [7] of 47%.

`CC(C)CNC(=O)C1(C(=O)N[C@H]2N=C(c3ccccc3)c3ccccc3N(C)C2=O)CCCC1` returned a concentration for half-maximal inhibition (IC50) against Gamma-secretase [1] of 0.0195 µM. Moreover, the inhibition constant Ki at Gamma-secretase [2] worked out at 0.0062 µM.

On to `CN1C(=O)[C@@H](NC(=O)C2(C(=O)NCCC3CCCC3)CCC2)N=C(c2ccc(C(F)(F)F)cc2)c2ccccc21`, for which the half-maximal inhibitory concentration (IC50) against Gamma-secretase [1] came to 0.013 µM. The compound further gave a Ki at Gamma-secretase [2] of 0.0022 µM.

On Gamma-secretase [1], `CC(C)CC(F)(F)NC(=O)C1(C(=O)N[C@@H]2C(=O)N(C)c3ccccc3-c3ccccc32)CCC1` displayed a 50% inhibitory concentration (IC50) of 0.28 µM. This compound had an inhibition constant (Ki) on Gamma-secretase [2] of 0.022 µM.

Regarding `CC(C)[C@H](O)NC(=O)C1(C(=O)N[C@@H]2C(=O)N(C)c3ccccc3-c3ccccc32)CCC1`, the IC50 against Gamma-secretase [1] was 0.015 µM. Also, the inhibitory constant (Ki) on Gamma-secretase [2] stood at 0.0039 µM.

Turning to `CC(C)C[C@H](O)NC(=O)C1(C(=O)N[C@H]2N=C(c3ccc(C(F)(F)F)cc3)c3ccccc3N(C)C2=O)CCC1`, the concentration for half-maximal inhibition (IC50) at Gamma-secretase [1] and against Gamma-secretase [8] was 0.0061 µM in each case. For the same compound, the affinity on Gamma-secretase [2] corresponds to a Ki of 0.0021 µM. Moreover, the fraction unbound in [3] came out at 0.017. Further, the CL/F in data set [4] is 0.667 mL/min/kg. Further, the Vdss with Canis familiaris amounted to 0.2 L/kg. The compound also had a half-life in data set [5] of 6.5 h. In addition, in [6], the peak level (Cmax) was 2980 nM. The bioavailability in data set [7] came to 84%.

`CC(C)C[C@H](O)NC(=O)C1(C(=O)N[C@@H]2C(=O)N(C)c3ccccc3-c3ccccc32)CCC1` had an IC50 against Gamma-secretase [1] of 0.0042 µM. Also, the Ki at Gamma-secretase [2] was 0.0009 µM.

`CN1C(=O)[C@@H](NC(=O)C2(C(=O)NCCC3CCCC3)CCCC2)N=C(c2ccccc2)c2ccccc21` registered an inhibition constant Ki on Gamma-secretase [2] of 0.036 µM.

For `CN1C(=O)[C@@H](NC(=O)C2(C(=O)NCc3cc(F)cc(F)c3)CCCC2)N=C(c2ccccc2)c2ccccc21`, at Gamma-secretase [1], 0.096 µM corresponded to half-maximal inhibition (IC50). This compound also came in with an inhibition constant Ki on Gamma-secretase [2] of 0.0099 µM.

In turn, `CN1C(=O)[C@@H](NC(=O)C2(C(=O)N[C@H](O)C3CCCCC3)CCC2)N=C(c2ccc(C(F)(F)F)cc2)c2ccccc21` displayed a half-maximal inhibitory concentration (IC50) against Gamma-secretase [1] of 0.28 µM. Besides, the Ki on Gamma-secretase [2] came out at 0.111 µM.

In turn, `CN1C(=O)[C@@H](NC(=O)C2(C(=O)N[C@@H](O)C3CCCCC3)CCC2)N=C(c2ccc(C(F)(F)F)cc2)c2ccccc21` displayed an IC50 at Gamma-secretase [1] of 0.011 µM. Further, the inhibition constant Ki on Gamma-secretase [2] stood at 0.0031 µM.

Turning to `CN1C(=O)[C@@H](NC(=O)C2(C(=O)NCc3cccs3)CCCC2)N=C(c2ccccc2)c2ccccc21`, the 50% inhibitory concentration (IC50) against Gamma-secretase [1] was determined as 0.019 µM. In addition, the affinity on Gamma-secretase [2], expressed as Ki, was 0.041 µM.

For `CCCNC(=O)C(CC)(CC)C(=O)N[C@H]1N=C(c2ccccc2)c2ccccc2N(C)C1=O`, on Gamma-secretase [2], the Ki turned out to be 0.227 µM.

Compound `CC(C)[C@H](O)NC(=O)C1(C(=O)N[C@H]2N=C(c3ccc(C(F)(F)F)cc3)c3ccccc3N(C)C2=O)CCC1` came in with a half-inhibitory concentration (IC50) on Gamma-secretase [1] of 0.0067 µM. Also, the Ki at Gamma-secretase [2] is 0.0011 µM.

For the compound `CCCNC(=O)C1(C(=O)N[C@H]2N=C(c3ccccc3)c3ccccc3N(C)C2=O)CCC1`, on Gamma-secretase [1], the half-maximal inhibitory concentration (IC50) was 0.082 µM. Further, affinity on Gamma-secretase [2] was put at a Ki of 0.015 µM.

`CC(C)CNC(=O)C1(C(=O)N[C@H]2N=C(c3ccc(C(F)(F)F)cc3)c3ccccc3N(C)C2=O)CCC1` gave a concentration for half-maximal inhibition (IC50) at Gamma-secretase [1] of 0.028 µM. Also, the Ki on Gamma-secretase [2] stood at 0.0012 µM.

For the compound `CC(C)CNC(=O)C1(C(=O)N[C@@H]2C(=O)N(C)c3ccccc3-c3ccccc32)CCCC1`, at Gamma-secretase [1], the IC50 was 0.0261 µM. This compound also showed a Ki at Gamma-secretase [2] of 0.003 µM.

On Gamma-secretase [2], `CCNC(=O)C(CC)(CC)C(=O)N[C@H]1N=C(c2ccccc2)c2ccccc2N(C)C1=O` returned a Ki of 1 µM.

Take `CC(C)CNC(=O)C1(C(=O)N[C@H]2N=C(c3ccc(C(F)(F)F)cc3)c3ccccc3N(C)C2=O)CCCC1`: the 50% inhibitory concentration (IC50) on Gamma-secretase [1] came out at 0.0125 µM. The inhibition constant Ki on Gamma-secretase [2] is 0.002 µM.

The compound `CC(C)CNC(=O)C1(C(=O)N[C@H]2N=C(c3ccccc3)c3ccccc3N(C)C2=O)CCC1` showed an IC50 on Gamma-secretase [1] of 0.021 µM. The inhibition constant Ki at Gamma-secretase [2] was 0.0035 µM. This compound also registered an unbound share (fraction unbound) in [3] of 0.004. This compound also showed an apparent clearance CL/F in data set [4] of 21.7 mL/min/kg. In the data set with Canis familiaris, this compound gave a Vdss of 3.1 L/kg. The same compound showed a half-life in data set [5] of 5.3 h. In addition, in data set [6], the peak level (Cmax) was 84 nM. Also, in data set [7], the bioavailability came out at 42%.

On to `CN1C(=O)[C@@H](NC(=O)C2(C(=O)NCCC3CCCC3)CCC2)c2ccccc2-c2ccccc21`, for which, at Gamma-secretase [1], the midpoint of inhibition, the IC50, lay at 0.021 µM. The compound further yielded a Ki at Gamma-secretase [2] of 0.0013 µM. The same compound gave an unbound share (fraction unbound) in data set [3] of 0.002. This compound also gave a CL/F in [4] of 5 mL/min/kg. Also, the Vdss in the data set with Canis familiaris is 2.9 L/kg. The compound also had a half-life in data set [5] of 13.4 h. This compound also yielded a Cmax in data set [6] of 365 nM. In data set [7], this compound showed a bioavailability of 71%.
